Measured values as given in ChEMBL document CHEMBL1201862, “PubChem BioAssay data set” (2004).
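Cells were grown in 96-well plates and exposed to each compound for 48 hours at five concentrations; endpoints were interpolated linearly between bracketing concentrations, or set to the highest concentration if not reached. GI50 = concentration required for 50% inhibition of growth.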 Activity calls are given as the source filed them. No stated cut-off is given here; in the data, active = GI50 up to about 1.1 µM and inactive = higher.

Assays:
Experiment in all cases: inhibition of tumour cell growth, NCI panel, 48 h
786-0 = test system: 786-0
A498 = test system: A498
A549 = test system: A549
ACHN = test system: ACHN
BT-549 = test system: BT-549
CAKI-1 = test system: CAKI-1
CCRF-CEM = test system: CCRF-CEM
COLO 205 = test system: COLO 205
DU-145 = test system: DU-145
EKVX = test system: EKVX
HCC 2998 = test system: HCC 2998
HCT-116 = test system: HCT-116
HCT-15 = test system: HCT-15
HL-60 = test system: HL-60
HOP-62 = test system: HOP-62
HOP-92 = test system: HOP-92
HT-29 = test system: HT-29
Hs-578T = test system: Hs-578T
IGROV-1 = test system: IGROV-1
K562 = test system: K562
KM12 = test system: KM12
LOX IMVI = test system: LOX IMVI
M14 = test system: M14
MCF7 = test system: MCF7
MDA-MB-231 = test system: MDA-MB-231
MDA-MB-435 = test system: MDA-MB-435
MDA-N = test system: MDA-N
MOLT-4 = test system: MOLT-4
Malme-3M = test system: Malme-3M
NCI-H226 = test system: NCI-H226
NCI-H23 = test system: NCI-H23
NCI-H460 = test system: NCI-H460
NCI-H522 = test system: NCI-H522
NCI/ADR-RES = test system: NCI/ADR-RES
OVCAR-3 = test system: OVCAR-3
OVCAR-4 = test system: OVCAR-4
OVCAR-5 = test system: OVCAR-5
OVCAR-8 = test system: OVCAR-8
PC-3 = test system: PC-3
RPMI-8226 = test system: RPMI-8226
RXF 393 = test system: RXF 393
SF-268 = test system: SF-268
SF-295 = test system: SF-295
SF-539 = test system: SF-539
SK-MEL-28 = test system: SK-MEL-28
SK-MEL-2 = test system: SK-MEL-2
SK-MEL-5 = test system: SK-MEL-5
SK-OV-3 = test system: SK-OV-3
SN12C = test system: SN12C
SNB-19 = test system: SNB-19
SNB-75 = test system: SNB-75
SR = test system: SR
SW-620 = test system: SW-620
T47D = test system: T47D
TK-10 = test system: TK-10
U-251 = test system: U-251
UACC-257 = test system: UACC-257
UO-31 = test system: UO-31
UACC-62 = test system: UACC-62

COC(=O)CCC(C)[C@H]1CCC2C3C(C[C@H](OC(C)=O)[C@@]21C)[C@@]1(C)CCC2(C[C@H]1C[C@H]3OC(C)=O)OOC1(CCCCC1)OO2 (some centres not stated)
GI50 (786-0): 15.1 µM (inactive)
GI50 (A498): > 100 µM (inactive)
GI50 (A549): 11.3 µM (inactive)
GI50 (ACHN): 11.2 µM (inactive)
GI50 (BT-549): 40.6 µM (inactive)
GI50 (CAKI-1): 41.1 µM (inactive)
GI50 (CCRF-CEM): 4.27 µM (inactive)
GI50 (COLO 205): 24.7 µM (inactive)
GI50 (DU-145): 41.5 µM (inactive)
GI50 (EKVX): 4.04 µM (inactive)
GI50 (HCC 2998): 28.3 µM (inactive)
GI50 (HCT-116): 5.58 µM (inactive)
GI50 (HCT-15): 21.8 µM
GI50 (HL-60): 7.26 µM (inactive)
GI50 (HOP-62): 2.99 µM (inactive)
GI50 (HOP-92): 1.02 µM (active)
GI50 (HT-29): 41.9 µM (inactive)
GI50 (Hs-578T): 12 µM (inactive)
GI50 (IGROV-1): 5.2 µM (inactive)
GI50 (K562): 10.3 µM (inactive)
GI50 (KM12): 23.6 µM (inactive)
GI50 (LOX IMVI): 11.5 µM (inactive)
GI50 (M14): 15.5 µM (inactive)
GI50 (MCF7): 22.3 µM (inactive)
GI50 (MDA-MB-231): 18 µM (inactive)
GI50 (MDA-MB-435): 36.2 µM (inactive)
GI50 (MDA-N): 33.9 µM (inactive)
GI50 (MOLT-4): 17.2 µM (inactive)
GI50 (Malme-3M): 36.4 µM (inactive)
GI50 (NCI-H226): 17.7 µM (inactive)
GI50 (NCI-H23): 12.7 µM (inactive)
GI50 (NCI-H460): 10.8 µM (inactive)
GI50 (NCI-H522): 9.33 µM (inactive)
GI50 (NCI/ADR-RES): 49.2 µM (inactive)
GI50 (OVCAR-3): 40.5 µM (inactive)
GI50 (OVCAR-4): 15.8 µM (inactive)
GI50 (OVCAR-5): 43.5 µM (inactive)
GI50 (OVCAR-8): 17.6 µM (inactive)
GI50 (PC-3): 5.97 µM (inactive)
GI50 (RPMI-8226): 1.99 µM (inactive)
GI50 (RXF 393): 38.7 µM (inactive)
GI50 (SF-268): 25 µM (inactive)
GI50 (SF-295): 20.7 µM (inactive)
GI50 (SF-539): 60.1 µM (inactive)
GI50 (SK-MEL-28): > 100 µM (inactive)
GI50 (SK-MEL-2): 52.7 µM (inactive)
GI50 (SK-MEL-5): 19.4 µM (inactive)
GI50 (SK-OV-3): 54.5 µM (inactive)
GI50 (SN12C): 36.6 µM (inactive)
GI50 (SNB-19): 42.2 µM (inactive)
GI50 (SNB-75): 21.2 µM (inactive)
GI50 (SR): 4.26 µM (inactive)
GI50 (SW-620): 33.3 µM (inactive)
GI50 (T47D): 65.9 µM (inactive)
GI50 (TK-10): > 100 µM (inactive)
GI50 (U-251): 12.7 µM (inactive)
GI50 (UACC-257): 19.1 µM (inactive)
GI50 (UO-31): 5.73 µM (inactive)

COc1cc(/C=C/c2nc(N)nnc2C)cc(OC)c1OC
GI50 (786-0): 21.5 µM (inactive)
GI50 (A498): 18 µM (inactive)
GI50 (A549): 20.3 µM (inactive)
GI50 (ACHN): 15.5 µM (inactive)
GI50 (BT-549): 20.5 µM (inactive)
GI50 (CAKI-1): 6.56 µM (inactive)
GI50 (CCRF-CEM): 6 µM (inactive)
GI50 (COLO 205): 10.3 µM (inactive)
GI50 (DU-145): > 57 µM (inactive)
GI50 (EKVX): 18.1 µM (inactive)
GI50 (HCC 2998): 9.86 µM (inactive)
GI50 (HCT-116): 9.89 µM (inactive)
GI50 (HCT-15): 4.04 µM
GI50 (HL-60): 3.03 µM (inactive)
GI50 (HOP-62): 13 µM (inactive)
GI50 (HOP-92): 16.6 µM (inactive)
GI50 (HT-29): 10.6 µM (inactive)
GI50 (Hs-578T): 11.9 µM (inactive)
GI50 (IGROV-1): 15.6 µM (inactive)
GI50 (K562): 15.5 µM (inactive)
GI50 (KM12): 10.9 µM (inactive)
GI50 (LOX IMVI): 7.31 µM (inactive)
GI50 (M14): 33.3 µM (inactive)
GI50 (MCF7): 4.8 µM (inactive)
GI50 (MDA-MB-231): > 84.1 µM (inactive)
GI50 (MDA-MB-435): 9.33 µM (inactive)
GI50 (MDA-N): 35.2 µM (inactive)
GI50 (MOLT-4): 38.8 µM (inactive)
GI50 (Malme-3M): 13.6 µM (inactive)
GI50 (NCI-H226): 10.1 µM (inactive)
GI50 (NCI-H23): 13.9 µM (inactive)
GI50 (NCI-H460): 13.8 µM (inactive)
GI50 (NCI-H522): 2.43 µM (inactive)
GI50 (NCI/ADR-RES): 11.2 µM (inactive)
GI50 (OVCAR-4): 27.9 µM (inactive)
GI50 (OVCAR-5): > 38.5 µM (inactive)
GI50 (OVCAR-8): 13 µM (inactive)
GI50 (PC-3): 11.4 µM (inactive)
GI50 (RPMI-8226): 14.1 µM (inactive)
GI50 (RXF 393): 22.9 µM (inactive)
GI50 (SF-268): 21.5 µM (inactive)
GI50 (SF-295): 29.2 µM (inactive)
GI50 (SK-MEL-28): 30.1 µM (inactive)
GI50 (SK-MEL-2): > 37.9 µM (inactive)
GI50 (SK-MEL-5): 14.1 µM (inactive)
GI50 (SK-OV-3): 31.5 µM (inactive)
GI50 (SN12C): > 70 µM (inactive)
GI50 (SNB-19): 23.4 µM (inactive)
GI50 (SR): 7.52 µM (inactive)
GI50 (SW-620): > 57.8 µM (inactive)
GI50 (T47D): 12.1 µM (inactive)
GI50 (TK-10): > 43.8 µM (inactive)
GI50 (U-251): 18.4 µM (inactive)
GI50 (UACC-257): 37.7 µM (inactive)
GI50 (UACC-62): 6.82 µM (inactive)
GI50 (UO-31): 4.71 µM (inactive)

CC(C)=CCC/C(=C/CC/C(=C\CCc1ccoc1)C(=O)O)C(=O)O
GI50 (786-0): > 100 µM (inactive)
GI50 (A498): > 100 µM (inactive)
GI50 (A549): > 100 µM (inactive)
GI50 (ACHN): > 100 µM (inactive)
GI50 (BT-549): > 100 µM (inactive)
GI50 (CAKI-1): > 100 µM (inactive)
GI50 (CCRF-CEM): > 100 µM (inactive)
GI50 (COLO 205): > 100 µM (inactive)
GI50 (DU-145): > 100 µM (inactive)
GI50 (EKVX): > 100 µM (inactive)
GI50 (HCC 2998): > 100 µM (inactive)
GI50 (HCT-116): > 100 µM (inactive)
GI50 (HCT-15): > 100 µM
GI50 (HL-60): > 100 µM (inactive)
GI50 (HOP-62): > 100 µM (inactive)
GI50 (HOP-92): > 100 µM (inactive)
GI50 (HT-29): > 100 µM (inactive)
GI50 (Hs-578T): > 100 µM (inactive)
GI50 (IGROV-1): > 100 µM (inactive)
GI50 (K562): > 100 µM (inactive)
GI50 (KM12): > 100 µM (inactive)
GI50 (LOX IMVI): > 100 µM (inactive)
GI50 (M14): > 100 µM (inactive)
GI50 (MCF7): > 100 µM (inactive)
GI50 (MDA-MB-231): > 100 µM (inactive)
GI50 (MDA-MB-435): > 100 µM (inactive)
GI50 (MDA-N): > 100 µM (inactive)
GI50 (MOLT-4): > 100 µM (inactive)
GI50 (Malme-3M): > 100 µM (inactive)
GI50 (NCI-H226): > 100 µM (inactive)
GI50 (NCI-H23): > 100 µM (inactive)
GI50 (NCI-H522): > 100 µM (inactive)
GI50 (NCI/ADR-RES): > 100 µM (inactive)
GI50 (OVCAR-3): > 100 µM (inactive)
GI50 (OVCAR-4): > 100 µM (inactive)
GI50 (OVCAR-5): > 100 µM (inactive)
GI50 (OVCAR-8): > 100 µM (inactive)
GI50 (PC-3): > 100 µM (inactive)
GI50 (RPMI-8226): > 100 µM (inactive)
GI50 (RXF 393): > 100 µM (inactive)
GI50 (SF-268): > 100 µM (inactive)
GI50 (SF-295): > 100 µM (inactive)
GI50 (SF-539): > 100 µM (inactive)
GI50 (SK-MEL-28): > 100 µM (inactive)
GI50 (SK-MEL-2): > 100 µM (inactive)
GI50 (SK-MEL-5): > 100 µM (inactive)
GI50 (SK-OV-3): > 100 µM (inactive)
GI50 (SN12C): > 100 µM (inactive)
GI50 (SNB-19): > 100 µM (inactive)
GI50 (SNB-75): > 100 µM (inactive)
GI50 (SR): > 10 µM (inactive)
GI50 (SW-620): > 100 µM (inactive)
GI50 (T47D): > 100 µM (inactive)
GI50 (TK-10): > 100 µM (inactive)
GI50 (U-251): > 100 µM (inactive)
GI50 (UACC-257): > 100 µM (inactive)
GI50 (UACC-62): > 100 µM (inactive)
GI50 (UO-31): > 100 µM (inactive)
